In patent US20160244436A1, “NOVEL FUNCTIONALIZED 5-(PHENOXYMETHYL)-1,3-DIOXANE ANALOGS EXHIBITING CYTOCHROME P450 INHIBITION AND THEIR METHOD OF USE” (CORTENDO AB (PUBL), priority 2013, published 2016) one finds IC50 data, which are given here for ten compounds.

The target of the first assay is T1, recombinant CYP-17 (Homo sapiens, UniProt P05093).
T1 construct: expressed in transfected cells; host or cells: AD293
T1 sequence (P05093 1-508): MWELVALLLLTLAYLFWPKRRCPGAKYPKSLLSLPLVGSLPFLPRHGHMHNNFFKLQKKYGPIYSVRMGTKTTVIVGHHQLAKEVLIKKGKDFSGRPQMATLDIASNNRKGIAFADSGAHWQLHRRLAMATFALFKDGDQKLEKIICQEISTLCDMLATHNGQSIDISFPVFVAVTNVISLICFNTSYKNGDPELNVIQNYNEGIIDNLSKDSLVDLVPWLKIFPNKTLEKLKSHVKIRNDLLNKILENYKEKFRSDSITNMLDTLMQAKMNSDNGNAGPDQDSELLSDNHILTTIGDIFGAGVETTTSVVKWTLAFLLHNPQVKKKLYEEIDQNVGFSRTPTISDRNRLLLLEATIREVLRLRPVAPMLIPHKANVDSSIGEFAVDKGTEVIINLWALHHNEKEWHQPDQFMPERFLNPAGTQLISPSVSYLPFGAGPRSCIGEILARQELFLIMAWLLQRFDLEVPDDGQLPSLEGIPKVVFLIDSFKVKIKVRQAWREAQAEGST
Kind of assay: Cyp17 assay: AD293 cells over-expressing recombinant CYP-17, 3H-acetic acid release from [21-3H] 17α-hydroxyl-Pregnenolone. It counts as cell-based. On the procedure:
Cyp17 assay protocol: AD293 cells that stably over-express recombinant CYP-17 were seeded in 96 well plates coated with poly D-lysine (15,000 cell per well) and incubated at 37° C. for 24 hours in Dulbecco's Modified Eagle Medium (DMEM) with Fetal Bovine Serum (FBS) that is stripped of hormones by charcoal treatment. The media is then removed, the cells are washed once with Phosphate buffer saline solution, and 50 μL Dulbecco's Modified Eagle Medium (DMEM) with Fetal Bovine Serum (FBS) that is stripped of hormones by charcoal treatment is added. Compounds of the disclosure are then added to the wells in eight concentration spanning 10 μM to 4.5 nM, and the plates are incubated for an additional 60 minutes at 37° C. [21-^3H] 17α-hydroxyl-Pregnenolone is then added (50 nCi per well, 31.25 nM) and the plates are incubated for an additional 4 hours at 37° C. The media is then collected, 200 μL, of chloroform is added, and the mixture is shaken for 1 hour. The aqueous layer is then separated and analyzed for the presence of ^3H-acetic acid using a Perkin Elmer Topcount NXT to determine IC50s of the compounds of the disclosure.
A word on the IC50: it is the concentration needed to halve the response being measured. For the compound `O=S(=O)(CCCCl)N1CCN(c2ccc(CO[C@H]3CO[C@](Cn4ccnc4)(c4ccc(Cl)cc4Cl)OC3)cc2)CC1` [Example 500017], the half-inhibitory concentration (IC50) was found to be 106 nM.

On to `COCCOC(=O)N1CCN(c2ccc(CO[C@H]3CO[C@](Cn4ccnc4)(c4ccccc4Cl)OC3)cc2)CC1` [Example 510014], for which the IC50 worked out at 20 nM.

With `Clc1ccccc1[C@]1(Cn2ccnc2)OC[C@@H](OCc2ccc(N3CCOCC3)cc2)CO1` [Example 500005], the IC50 amounted to 260 nM.

For the compound `CS(=O)(=O)N1CCN(c2ccc(CO[C@H]3CO[C@](Cn4ccnc4)(c4ccccc4Cl)OC3)cc2)CC1` [Example 500012], the IC50 came out at 12 nM.

Consider `COCCOC(=O)N1CCN(c2ccc(CO[C@H]3CO[C@@](Cn4ccnc4)(c4ccccc4Cl)OC3)cc2)CC1` [Example 510012], for which the IC50 stood at 2500 nM.

Take `Clc1ccccc1[C@]1(Cn2ccnc2)OC[C@@H](OCc2ccc(-c3ccncc3)cc2)CO1` [Example 510017]: the half-maximal inhibitory concentration (IC50) is 42 nM.

As to `CN(C)C(=O)N1CCN(c2ccc(CO[C@H]3CO[C@](Cn4ccnc4)(c4ccccc4Cl)OC3)cc2)CC1` [Example 510013], the IC50 was 27 nM.

On to `CC(=O)N1CCN(c2ccc(CO[C@H]3CO[C@](Cn4ccnc4)(c4ccccc4Cl)OC3)cc2)CC1` [Example 500003], for which the IC50 came to 146 nM.

Regarding `O=S(=O)(c1cccnc1)N1CCN(c2ccc(CO[C@H]3CO[C@](Cn4ccnc4)(c4ccc(Cl)cc4Cl)OC3)cc2)CC1` [Example 500025], the IC50 worked out at 13 nM.

With `O=S(=O)(c1c[nH]cn1)N1CCN(c2ccc(CO[C@H]3CO[C@](Cn4ccnc4)(c4ccc(Cl)cc4Cl)OC3)cc2)CC1` [Example 500023], the concentration for half-maximal inhibition (IC50) came out at 67 nM.

Another assay addresses T2, recombinant CYP-11 (Homo sapiens, UniProt P15538).
T2 construct: expressed in transfected cells; host or cells: AD293
T2 sequence (P15538 25-503): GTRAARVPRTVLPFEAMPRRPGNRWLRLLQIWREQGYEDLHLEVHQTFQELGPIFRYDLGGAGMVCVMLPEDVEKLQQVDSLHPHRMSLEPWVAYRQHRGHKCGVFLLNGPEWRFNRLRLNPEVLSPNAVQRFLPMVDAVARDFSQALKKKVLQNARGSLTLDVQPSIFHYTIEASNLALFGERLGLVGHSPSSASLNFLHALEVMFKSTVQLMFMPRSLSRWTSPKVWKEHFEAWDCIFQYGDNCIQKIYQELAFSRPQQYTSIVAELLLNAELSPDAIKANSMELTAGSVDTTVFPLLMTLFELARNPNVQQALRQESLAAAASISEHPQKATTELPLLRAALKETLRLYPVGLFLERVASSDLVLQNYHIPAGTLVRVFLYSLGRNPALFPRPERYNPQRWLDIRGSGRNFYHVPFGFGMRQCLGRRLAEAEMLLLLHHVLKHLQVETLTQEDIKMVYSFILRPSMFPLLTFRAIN
Kind of assay: Cyp11 assay: AD293 cells over-expressing recombinant CYP-11, cortisol formation from 11-deoxycortisol by LC/MS. The assay is classed as cell-based. As for the experimental part:
Cyp11 assay protocol: AD293 cells that stably over-express recombinant CYP-11 were seeded in 96 well plates coated with poly D-lysine (15,000 cell per well) and incubated at 37° C. for 24 hours in Dulbecco's Modified Eagle Medium (DMEM) with Fetal Bovine Serum (FBS) that is stripped of hormones by charcoal treatment. The media is then removed, the cells are washed once with Phosphate buffer saline solution, and 50 μL Dulbecco's Modified Eagle Medium (DMEM) with Fetal Bovine Serum (FBS) that is stripped of hormones by charcoal treatment is added. Compounds of the disclosure are then added to the wells in eight concentration spanning 10 μM to 4.5 nM, and the plates are incubated for an additional 60 minutes at 37° C. 11-deoxycortisol is then added (2.0 μM) and the plates are incubated for an additional 12 hours at 37° C. After incubation, 50 uL of the supernatant (medium) is transferred into a fresh plate and 150 uL of an acetonitrile solution containing 200 ng/ml of Telmisartan is added. The sample is mixed and then placed in a centrifuge at 2000 rpm for 5 minutes. 100 uL of the supernatant is transferred into a fresh 96 well deep well plate, 100 uL of 1:1 methanol:water was added, the solution was mixed and then analyzed by LC/MS for the presence of cortisol using an Agilent 1200 RRLC/ABSCIEX API4000 LC-MS or Shimadzu Prominance/ABSCIEX API4000 LC-MS to determine IC5os of the compounds of the disclosure.
In the case of `O=S(=O)(CCCCl)N1CCN(c2ccc(CO[C@H]3CO[C@](Cn4ccnc4)(c4ccc(Cl)cc4Cl)OC3)cc2)CC1` [Example 500017], the IC50 came to 27 nM.

Regarding `COCCOC(=O)N1CCN(c2ccc(CO[C@H]3CO[C@](Cn4ccnc4)(c4ccccc4Cl)OC3)cc2)CC1` [Example 510014], the IC50 is 140 nM.

Take `CS(=O)(=O)N1CCN(c2ccc(CO[C@H]3CO[C@](Cn4ccnc4)(c4ccccc4Cl)OC3)cc2)CC1` [Example 500012]: the IC50 was found to be 100 nM.

As for `Clc1ccccc1[C@]1(Cn2ccnc2)OC[C@@H](OCc2ccc(-c3ccncc3)cc2)CO1` [Example 510017], the IC50 was 440 nM.

Take `CN(C)C(=O)N1CCN(c2ccc(CO[C@H]3CO[C@](Cn4ccnc4)(c4ccccc4Cl)OC3)cc2)CC1` [Example 510013]: the concentration for half-maximal inhibition (IC50) turned out to be 70 nM.

As to `CC(=O)N1CCN(c2ccc(CO[C@H]3CO[C@](Cn4ccnc4)(c4ccccc4Cl)OC3)cc2)CC1` [Example 500003], the 50% inhibitory concentration (IC50) stood at 521 nM.

Regarding `O=S(=O)(c1cccnc1)N1CCN(c2ccc(CO[C@H]3CO[C@](Cn4ccnc4)(c4ccc(Cl)cc4Cl)OC3)cc2)CC1` [Example 500025], the concentration for half-maximal inhibition (IC50) was determined as 12 nM.

Regarding `O=S(=O)(c1c[nH]cn1)N1CCN(c2ccc(CO[C@H]3CO[C@](Cn4ccnc4)(c4ccc(Cl)cc4Cl)OC3)cc2)CC1` [Example 500023], the IC50 was determined as 14 nM.

The target of another assay is T3, recombinant CYP-21 (Homo sapiens, UniProt P08686).
T3 construct: expressed in transfected cells; host or cells: AD293
T3 sequence (P08686 1-495): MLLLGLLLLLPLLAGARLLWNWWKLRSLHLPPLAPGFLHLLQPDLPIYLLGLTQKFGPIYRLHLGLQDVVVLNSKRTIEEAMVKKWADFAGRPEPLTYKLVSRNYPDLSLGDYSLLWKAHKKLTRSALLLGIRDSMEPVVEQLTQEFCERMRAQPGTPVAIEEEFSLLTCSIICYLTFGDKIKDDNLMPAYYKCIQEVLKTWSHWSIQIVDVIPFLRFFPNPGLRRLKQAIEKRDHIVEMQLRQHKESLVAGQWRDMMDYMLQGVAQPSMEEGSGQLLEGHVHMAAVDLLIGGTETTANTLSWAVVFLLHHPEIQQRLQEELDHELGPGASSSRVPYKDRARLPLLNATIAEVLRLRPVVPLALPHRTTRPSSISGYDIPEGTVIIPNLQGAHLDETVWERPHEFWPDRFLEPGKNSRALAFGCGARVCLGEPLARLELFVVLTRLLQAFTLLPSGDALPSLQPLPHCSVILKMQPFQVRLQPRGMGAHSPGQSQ
Kind of assay: Cyp21 assay: AD293 cells over-expressing recombinant CYP-21, 11-deoxycortisol formation from 17α-OH Progesterone by LC/MS. It counts as cell-based. As for the experimental part: Cyp21 assay protocol: AD293 cells that stably over-express recombinant CYP-21 were seeded in 96 well plates coated with poly D-lysine (10,000 cell per well) and incubated at 37° C. for 24 hours in Dulbecco's Modified Eagle Medium (DMEM) with Fetal Bovine Serum (FBS) that is stripped of hormones by charcoal treatment. The media is then removed, the cells are washed once with Phosphate buffer saline solution, and 50 μL Dulbecco's Modified Eagle Medium (DMEM) with Fetal Bovine Serum (FBS) that is stripped of hormones by charcoal treatment is added. Compounds of the disclosure are then added to the wells in eight concentration spanning 10 μM to 4.5 nM, and the plates are incubated for an additional 60 minutes at 37° C. 17α-OH Progesterone is then added (1.0 μM) and the plates are incubated for an additional 45 minutes at 37° C. After incubation, 50 uL of the supernatant (medium) is transferred into a fresh plate and 150 uL of an acetonitrile solution containing 200 ng/ml of Telmisartan is added. The sample is mixed and then placed in a centrifuge at 2000 rpm for 5 minutes. 100 uL of the supernatant is transferred into a fresh 96 well deep well plate, 100 uL of 1:1 methanol:water was added, the solution was mixed and then analyzed by LC/MS for the presence of 11-deoxycortisol using an Agilent 1200 RRLC/ABSCIEX API4000 LC-MS or Shimadzu Prominance/ABSCIEX API4000 LC-MS to determine IC5os of the compounds of the disclosure.
In the case of `O=S(=O)(CCCCl)N1CCN(c2ccc(CO[C@H]3CO[C@](Cn4ccnc4)(c4ccc(Cl)cc4Cl)OC3)cc2)CC1` [Example 500017], the concentration for half-maximal inhibition (IC50) turned out to be 1100 nM.

As for `COCCOC(=O)N1CCN(c2ccc(CO[C@H]3CO[C@](Cn4ccnc4)(c4ccccc4Cl)OC3)cc2)CC1` [Example 510014], the half-inhibitory concentration (IC50) was found to be 570 nM.

Take `Clc1ccccc1[C@]1(Cn2ccnc2)OC[C@@H](OCc2ccc(N3CCOCC3)cc2)CO1` [Example 500005]: the IC50 is 960 nM.

Regarding `CS(=O)(=O)N1CCN(c2ccc(CO[C@H]3CO[C@](Cn4ccnc4)(c4ccccc4Cl)OC3)cc2)CC1` [Example 500012], the IC50 came to 1520 nM.

Consider `COCCOC(=O)N1CCN(c2ccc(CO[C@H]3CO[C@@](Cn4ccnc4)(c4ccccc4Cl)OC3)cc2)CC1` [Example 510012], for which the IC50 came out at 800 nM.

On to `Clc1ccccc1[C@]1(Cn2ccnc2)OC[C@@H](OCc2ccc(-c3ccncc3)cc2)CO1` [Example 510017], for which the concentration for half-maximal inhibition (IC50) amounted to 391 nM.

For the compound `CN(C)C(=O)N1CCN(c2ccc(CO[C@H]3CO[C@](Cn4ccnc4)(c4ccccc4Cl)OC3)cc2)CC1` [Example 510013], the IC50 was determined as 800 nM.

Consider `CC(=O)N1CCN(c2ccc(CO[C@H]3CO[C@](Cn4ccnc4)(c4ccccc4Cl)OC3)cc2)CC1` [Example 500003], for which the half-inhibitory concentration (IC50) was 1480 nM.

Consider `O=S(=O)(c1cccnc1)N1CCN(c2ccc(CO[C@H]3CO[C@](Cn4ccnc4)(c4ccc(Cl)cc4Cl)OC3)cc2)CC1` [Example 500025], for which the IC50 came to 273 nM.

On to `O=S(=O)(c1c[nH]cn1)N1CCN(c2ccc(CO[C@H]3CO[C@](Cn4ccnc4)(c4ccc(Cl)cc4Cl)OC3)cc2)CC1` [Example 500023], for which the 50% inhibitory concentration (IC50) was 426 nM.
